According to paper PMC8248988, “A signal capture and proofreading mechanism for the KDEL-receptor explains selectivity and dynamic range in ER retrieval” (eLife, 2021):

Assays:
[1] = target: T1, human KDELR1 D50N/N54K/E117Q/W120A (Homo sapiens, UniProt P24390, D50N/E117Q/N54K/W120A); experiment: ER retrieval assay, KDELR1 D50N/N54K/E117Q/W120A-GFP; type: cell-based; settings: COS-7 cells
T1 construct: expressed in transfected cells; host or cells: COS-7
Excerpt: (§1) To create KDELR1-GFP and KDELR2-GFP, the reading frames for Homo sapiens KDELR1 (Uniprot: P24390) and KDELR2 (Uniprot: P33947) were cloned into the pEF5/FRT low level mammalian expression vector with a C-terminal 20 amino acid linker made up of 5 copies of Gly-Ser-Ser-Ser followed by GFP. Specific point mutations were introduced using the Quickchange protocol (Stratagene) and are described in the key resources table and figures. To create the mScarlet-KDEL^sec ligand construct, mScarlet with an N-terminal hGH signal peptide and the 16 C-terminal residues of human BiP at its C-terminus, containing the KDEL signal, was cloned into the pcDNA3.1 vector. […] The Golgi marker protein TGN46 was detected by antibody (sheep anti-TGN46 AHP500G; AbD Serotec) and an Alexa 647 conjugated secondary anti-sheep secondary (A-21448, Invitrogen). In Figure 1d and e, endogenous KDELR was detected by antibody (mouse anti-KDELR ADI-VAA-PT048; Enzo Life Sciences) and Alexa 488 conjugated anti-mouse secondary antibody (A-21202, Invitrogen). For retrieval assays in other figures, KDELR-GFP fusion proteins were directly detected by fluorescence. The mScarlet-xDEL fusion proteins were directly detected by fluorescence. […] The fraction of KDEL receptor in the Golgi apparatus was calculated by dividing the Golgi signal by the total cell signal. […]

[2] = target: T2, human KDELR1 E117A (Homo sapiens, UniProt P24390, E117A); experiment: ER retrieval assay, KDELR1 E117A-GFP; type: cell-based; settings: COS-7 cells
T2 construct: expressed in transfected cells; host or cells: COS-7
T2 sequence (P24390 whole entry E117A): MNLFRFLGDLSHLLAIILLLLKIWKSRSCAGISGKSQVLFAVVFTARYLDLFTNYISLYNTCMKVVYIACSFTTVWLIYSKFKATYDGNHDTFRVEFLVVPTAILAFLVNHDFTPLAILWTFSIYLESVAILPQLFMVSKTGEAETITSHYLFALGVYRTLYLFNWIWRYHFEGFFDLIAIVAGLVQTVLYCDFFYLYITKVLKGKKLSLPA
Excerpt: as §1

T1 sequence (P24390 whole entry D50N/N54K/E117Q/W120A): as the sequence (P24390 whole entry E117A) above, with D50N, N54K, A117Q, W120A counted along it

Substance: ADEL [pcDNA3.1 hGHss-mScarlet-H. sapiens BiP639-654K651A (ADEL^SEC), secreted mScarlet fusion with human BiP C-terminus, ADEL signal]
- ligand-induced receptor retrieval to the ER (in words) [1]: does not relocate from the Golgi to the ER
- ligand-induced receptor retrieval to the ER (in words) [2]: relocated to the ER
